# Counter-ions that a name gives are not always drawn. Like-named read-outs stand apart in the source and are kept apart here.
# Target: T1, F876L mutant Androgen Receptor (AR-F876L) (Homo sapiens, UniProt P10275, F877L)
# T1 construct: expressed in transfected cells; host or cells: LNCaP
# T1 sequence (P10275 1-920 F877L): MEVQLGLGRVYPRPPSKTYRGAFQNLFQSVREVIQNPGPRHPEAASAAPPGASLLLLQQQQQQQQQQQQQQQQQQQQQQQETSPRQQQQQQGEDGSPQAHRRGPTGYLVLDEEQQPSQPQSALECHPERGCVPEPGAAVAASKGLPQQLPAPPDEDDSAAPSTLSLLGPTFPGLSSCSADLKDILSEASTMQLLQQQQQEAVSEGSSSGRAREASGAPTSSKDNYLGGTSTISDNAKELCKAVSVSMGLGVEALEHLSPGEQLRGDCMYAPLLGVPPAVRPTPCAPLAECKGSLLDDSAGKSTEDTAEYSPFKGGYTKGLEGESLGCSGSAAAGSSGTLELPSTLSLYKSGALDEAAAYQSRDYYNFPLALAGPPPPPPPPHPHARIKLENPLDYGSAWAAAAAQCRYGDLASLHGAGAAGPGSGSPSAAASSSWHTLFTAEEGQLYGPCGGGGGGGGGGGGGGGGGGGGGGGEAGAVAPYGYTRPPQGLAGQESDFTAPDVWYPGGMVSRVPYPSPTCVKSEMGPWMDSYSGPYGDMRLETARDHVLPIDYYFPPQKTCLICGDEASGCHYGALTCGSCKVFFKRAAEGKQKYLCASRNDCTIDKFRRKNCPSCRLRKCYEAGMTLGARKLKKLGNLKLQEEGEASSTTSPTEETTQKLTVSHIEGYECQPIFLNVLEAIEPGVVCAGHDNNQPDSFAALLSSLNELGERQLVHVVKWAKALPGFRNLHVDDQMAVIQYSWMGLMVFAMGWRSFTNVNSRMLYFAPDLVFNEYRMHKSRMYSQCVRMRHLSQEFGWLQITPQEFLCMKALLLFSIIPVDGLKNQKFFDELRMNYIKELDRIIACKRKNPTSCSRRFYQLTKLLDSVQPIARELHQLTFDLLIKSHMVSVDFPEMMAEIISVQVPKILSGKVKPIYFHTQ
# Test: AR reporter assay, LNCaP-AR-F876L ANT (antagonist mode)
# Format: cell-based
# Settings: for Emax: read-out: LNCaP-AR-F876L ANT MAX % Inh
# Description: LNCaP AR (cs) and LNCaP F876L luciferase cell lines were generated by transduction of each cell line (description of cell line generation Joseph J D, Lu N, Qian J, Sensintaffar J, Shao G, Brigham D, Moon M, Maneval E C, Chen I, Darimont B, Hager J H. A clinically relevant androgen receptor mutation confers resistance to second-generation antiandrogens enzalutamide and ARN-509. Cancer Discov 2013; 3:1020-1029) with an Androgen Response Element Firefly Luciferase lentiviral construct at an MOI (multiplicity of infection) of 50 following the manufacturer's instructions (Qiagen). A stable pooled-population cell line was generated using puromycin (Life Technologies) selection at 1:10,000 v/v. The protocol below was used for both cell lines and for testing of the compounds of Formula (I) of the present invention.
# LNCaP cells were grown to about 80% confluence, media removed and cells rinsed in Hank's balanced salt solution prior to separation from the plate with 0.05% Trypsin EDTA. Cells were lifted and trypsin negated in complete CSS (charcoal stripped serum) culture media. CSS was maintained on cells for 24 h prior to assay, at which time 5,000 cells/[…] were seeded in Greiner 384 well White/White Tissue Culture Treated Plates and incubated for a further 1-2 hours at 37° C., 5% CO2, prior to addition of 10 μL of 4× Test Compounds (compounds described herein) or Assay Controls (all diluted in complete media containing 10% css). A further 10 μL of 4× R-1881 Agonist Challenge (antagonist assay) or Buffer (agonist assay) was then added (all diluted in complete media containing 10% css). Agonist challenge was at 400 pM for WT assay and 600 pM for F876L assay. Plates containing cells and compounds herein were incubated for a further 20-24 hours at 37° C., 5% CO2 before addition of 40 μL/well of Steady-Glo Luciferase Assay System Reagent (Promega#E2520). After 1 h, plates were read for luminescence on a BMG Pherastar.
# Agonist challenge: R-1881 (Metribolone)—Agonist
# Antagonist control (low control): 5-(5-(4-((1-Methylpiperidin-4-yl)oxy)phenyl)-8-oxo-6-thioxo-5,7-diazaspiro[3.4]octan-7-yl)-3-(trifluoromethyl)picolinonitrile (WO 2011/103202, EXAMPLE 19, Compound 129, CAS #1332390-06-3).
# (1−(Sample RLU−Ave Low Control RLU[10 μM Antagonist Control])/(Ave High Control RLU [400 pM R-1881]−Ave Low Control RLU[10 μM Antagonist Control]))*100.
# EC/IC50 calculations were achieved utilizing calculated RLU data and data fitting macros. Data were fit using least-squares methods to the following formula: […]
# As used herein: • pIC50 is defined as −Log10(IC50 expressed in [Molar]). • pEC50 is defined as −Log10(EC50 expressed in [Molar]). • MAX % Inh is defined as the maximum % inhibition of R1881 control response observed for a compound over the tested concentration range. • MAX % Stim is defined as the maximum % stimulation (agonist response) observed for a compound over the tested concentration range. • LNCaP-AR-wt ANT refers to the reporter assay using LNCaP cells stably transfected with the Androgen Response Element Firefly Luciferase lentiviral construct and wild-type Androgen Receptor (AR-wt) in Antagonist mode. • LNCaP-AR-wt AG refers to the reporter assay using LNCaP cells stably transfected with the Androgen Response Element Firefly Luciferase lentiviral construct and wild-type Androgen Receptor (AR-wt) in Agonist mode. • LNCaP-AR-F876L ANT refers to the reporter assay using LNCaP cells stably transfected with the Androgen Response Element Firefly Luciferase lentiviral construct and F876L mutant Androgen Receptor (AR-F876L) in Antagonist mode. • LNCaP-AR-F876L AG refers to the reporter assay using LNCaP cells stably transfected with the Androgen Response Element Firefly Luciferase lentiviral construct and F876L mutant Androgen Receptor (AR-F876L) in Agonist mode.
# [1] = antagonist mode, 600 pM R-1881 challenge, luciferase reporter, -Log10(IC50 in Molar), read-out: LNCaP-AR-F876L ANT pIC50 (converted)
SMILES,IC50 [1] [nM],Emax [%],IC50 [nM]
"Cc1cc(N2C(=O)C3(CCC3)N(c3ccc(OC4CCN(C)CC4)nc3)C2=S)ccc1C#N [Compound 18, 2-Methyl-4-(5-(6-((1-methylpiperidin-4-yl)oxy)pyridin-3-yl)-8-oxo-6-thioxo-5,7-diazaspiro[3.4]octan-7-yl)benzonitrile]",282,99.8,–
"COc1cc(N2C(=O)C3(CCC3)N(c3ccc(OC4CCN(C)CC4)cc3)C2=S)ccc1C#N [Compound 19, 2-Methoxy-4-(5-(4-((1-methylpiperidin-4-yl)oxy)phenyl)-8-oxo-6-thioxo-5,7-diazaspiro[3.4]octan-7-yl)benzonitrile]",–,101,83.2
"COc1cc(N2C(=O)C3(CCC3)N(c3ccc(OC4CCN(C)CC4)nc3)C2=S)ccc1C#N [Compound 20, 2-Methoxy-4-(5-(6-((1-methylpiperidin-4-yl)oxy)pyridin-3-yl)-8-oxo-6-thioxo-5,7-diazaspiro[3.4]octan-7-yl)benzonitrile]",145,100,–
"N#Cc1ccc(N2C(=O)C3(CCC3)N(c3ccc(OC4CCNCC4)cc3)C2=S)cc1Cl [Compound 21, 2-Chloro-4-(8-oxo-5-(4-(piperidin-4-yloxy)phenyl)-6-thioxo-5,7-diazaspiro[3.4]octan-7-yl)benzonitrile]",200,104,–
"CN1CCC(Oc2ccc(N3C(=S)N(c4ccc(C#N)c(Cl)c4)C(=O)C34CCC4)cc2)CC1 [Compound 22, 2-Chloro-4-(5-(4-((1-methylpiperidin-4-yl)oxy)phenyl)-8-oxo-6-thioxo-5,7-diazaspiro[3.4]octan-7-yl)benzonitrile]",–,99.5,112
"N#Cc1ccc(N2C(=O)C3(CCC3)N(c3ccc(OC4CCNCC4)nc3)C2=S)cc1Cl [Compound 23, 2-Chloro-4-(8-oxo-5-(6-(piperidin-4-yloxy)pyridin-3-yl)-6-thioxo-5,7-diazaspiro[3.4]octan-7-yl)benzonitrile hydrochloride]",–,103,50.1
"CN1CCC(Oc2ccc(N3C(=S)N(c4ccc(C#N)c(Cl)c4)C(=O)C34CCC4)cn2)CC1 [Compound 24, 2-Chloro-4-(5-(6-((1-methylpiperidin-4-yl)oxy)pyridin-3-yl)-8-oxo-6-thioxo-5,7-diazaspiro[3.4]octan-7-yl)benzonitrile hydrochloride]",–,99.8,77.6
